Results reported in US8686044B2, “Amide derivative, pest control agent containing the amide derivative, and use of the amide derivative” (Mitsui Chemicals Agro, Inc., priority 2008, dated 2014).

Legend:
Type in all cases: in vivo
Spodoptera litura = experiment: Pesticidal test against Spodoptera litura (cabbage leaf dip); details: foliar, 144 h, concentration 1 ppm, 2-stage larvae, examined after 6 days, 25° C., read-out: pesticidal rate
In short: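 Cabbage leaf pieces dipped 30 seconds in compound solution at a predetermined concentration and air-dried, then offered to second-stage larvae, five per group in two replicates. Held at 25° C. Living and dead larvae counted after 6 days.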

Plutella xylostella = experiment: Pesticidal test against Plutella xylostella (cabbage leaf dip); details: foliar, 144 h, concentration 1 ppm, 2-stage larvae, examined after 6 days, 25° C., read-out: pesticidal rate
In short: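 Cabbage leaf pieces dipped 30 s in test solution at a predetermined concentration, air-dried, then offered to 2nd-instar larvae, five per group in duplicate. Held at 25° C; living and dead larvae counted after 6 days.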

Laodelphax striatellus = experiment: Pesticidal test against Laodelphax striatellus (rice seedling spray); details: 144 h, concentration 100 ppm, 3-stage larvae, examined after 6 days, 25° C., read-out: pesticidal rate
In short: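 Rice seedlings sprayed with 2.5 ml acetone solution of compound at a predetermined concentration, air-dried, then infested with third-stage Laodelphax striatellus larvae in capped water-containing tubes at 25 °C. Living and dead insects counted after 6 days; ten larvae per group, two replicates.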

Musca domestica = experiment: Pesticidal test against Musca domestica (petri dish dry film); details: 24 h, concentration 100 ppm, female adults, examined after 1 day, 25° C., read-out: pesticidal rate
In short: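 Dry film from 1 ml acetone solution of compound at a predetermined concentration, air-dried in a 9 cm petri dish; female adult flies released and dish capped. Held at 25° C; living and dead counted after 1 day. Five insects per group, two replicates.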

Blattella germanica = experiment: Pesticidal test against Blattella germanica (petri dish dry film); details: 24 h, concentration 100 ppm, female adults, examined after 1 day, 25° C., read-out: pesticidal rate
Method: Pesticidal Test against Blattella germanica
1 ml of an acetone solution in which a test compound had been prepared at a predetermined concentration was added dropwise to a petri dish having a diameter of 9 cm, and air-dried, and then the female adults of Blattella germanica were released and the petri dish was capped. They were left to stand in a thermostatic chamber at 25° C., and the numbers of the living pests and the dead pests were examined after 1 day. The test was carried out with five larvae per group in two replicates.

Helicoverpa armigera = experiment: Pesticidal test against Helicoverpa armigera (cabbage leaf disk dip); details: foliar, 72 h, concentration 1 ppm, 2-stage larvae, examined after 3 days, 25° C., read-out: pesticidal rate
In short: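 Cabbage leaf disks were dipped for 30 s in test solution at a set concentration and air-dried. Second-instar larvae were placed one per hole and held at 25 °C, with live and dead counts taken after 3 days. Five larvae per group were tested in two replicates.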

O=C(Nc1cccc(C(=O)Nc2c(Br)cc(C(F)(C(F)(F)F)C(F)(F)C(F)(F)F)cc2C(F)(F)F)c1)c1ccccc1 (stereo not drawn) [6-346]
≥ 70%: pest or weed control at 1 ppm (Spodoptera litura) | pest or weed control at 1 ppm (Plutella xylostella) | pest or weed control at 100 ppm (Laodelphax striatellus) | pest or weed control at 100 ppm (Musca domestica) | pest or weed control at 100 ppm (Blattella germanica)

O=C(Nc1c(Br)cc(C(F)(C(F)(F)F)C(F)(F)C(F)(F)F)cc1C(F)(F)F)c1cccc(NC(=O)c2c(F)cccc2F)c1 (stereo not drawn) [6-368]
≥ 70%: pest or weed control at 1 ppm (Spodoptera litura) | pest or weed control at 1 ppm (Plutella xylostella) | pest or weed control at 100 ppm (Laodelphax striatellus) | pest or weed control at 100 ppm (Musca domestica) | pest or weed control at 100 ppm (Blattella germanica)

O=C(Nc1cccc(C(=O)Nc2c(Br)cc(C(F)(C(F)(F)F)C(F)(F)F)cc2Br)c1F)c1ccc(F)cc1 [6-1107]
≥ 70%: pest or weed control at 1 ppm (Spodoptera litura) | pest or weed control at 1 ppm (Plutella xylostella) | pest or weed control at 100 ppm (Laodelphax striatellus) | pest or weed control at 100 ppm (Musca domestica) | pest or weed control at 100 ppm (Blattella germanica)

N#Cc1cccc(C(=O)Nc2cccc(C(=O)Nc3c(Br)cc(C(F)(C(F)(F)F)C(F)(F)F)cc3Br)c2F)c1 [6-1124]
≥ 70%: pest or weed control at 1 ppm (Spodoptera litura) | pest or weed control at 1 ppm (Plutella xylostella) | pest or weed control at 100 ppm (Laodelphax striatellus) | pest or weed control at 100 ppm (Musca domestica) | pest or weed control at 100 ppm (Blattella germanica)

O=C(Nc1c(Br)cc(C(F)(C(F)(F)F)C(F)(F)F)cc1Br)c1cccc(NC(=O)c2c(F)cccc2F)c1F [6-1126]
≥ 70%: pest or weed control at 1 ppm (Spodoptera litura) | pest or weed control at 1 ppm (Plutella xylostella) | pest or weed control at 100 ppm (Laodelphax striatellus) | pest or weed control at 100 ppm (Musca domestica) | pest or weed control at 100 ppm (Blattella germanica)

O=C(Nc1cccc(C(=O)Nc2c(Br)cc(C(F)(C(F)(F)F)C(F)(F)F)cc2Br)c1F)c1ccc(Cl)nc1 [6-1147]
≥ 70%: pest or weed control at 1 ppm (Spodoptera litura) | pest or weed control at 1 ppm (Plutella xylostella) | pest or weed control at 100 ppm (Laodelphax striatellus) | pest or weed control at 100 ppm (Musca domestica) | pest or weed control at 100 ppm (Blattella germanica)

O=C(Nc1cccc(C(=O)Nc2c(Br)cc(C(F)(C(F)(F)F)C(F)(F)C(F)(F)F)cc2Br)c1F)c1cccc(F)c1 (stereo not drawn) [6-1184]
≥ 70%: pest or weed control at 1 ppm (Spodoptera litura) | pest or weed control at 1 ppm (Plutella xylostella) | pest or weed control at 100 ppm (Laodelphax striatellus) | pest or weed control at 100 ppm (Musca domestica) | pest or weed control at 100 ppm (Blattella germanica)

O=C(Nc1c(Br)cc(C(F)(C(F)(F)F)C(F)(F)C(F)(F)F)cc1Br)c1cccc(NC(=O)c2c(F)cccc2F)c1F (stereo not drawn) [6-1204]
≥ 70%: pest or weed control at 1 ppm (Spodoptera litura) | pest or weed control at 1 ppm (Plutella xylostella) | pest or weed control at 100 ppm (Laodelphax striatellus) | pest or weed control at 100 ppm (Musca domestica) | pest or weed control at 100 ppm (Blattella germanica)

O=C(Nc1cccc(C(=O)Nc2c(Br)cc(C(F)(C(F)(F)F)C(F)(F)C(F)(F)F)cc2Br)c1F)c1cccnc1Cl (stereo not drawn) [6-1218]
≥ 70%: pest or weed control at 1 ppm (Spodoptera litura) | pest or weed control at 1 ppm (Plutella xylostella) | pest or weed control at 100 ppm (Laodelphax striatellus) | pest or weed control at 100 ppm (Musca domestica) | pest or weed control at 100 ppm (Blattella germanica)

O=C(Nc1cccc(C(=O)Nc2c(I)cc(C(F)(C(F)(F)F)C(F)(F)C(F)(F)F)cc2I)c1F)c1ccccc1 (stereo not drawn) [6-1338]
≥ 70%: pest or weed control at 1 ppm (Spodoptera litura) | pest or weed control at 1 ppm (Plutella xylostella) | pest or weed control at 100 ppm (Laodelphax striatellus) | pest or weed control at 100 ppm (Musca domestica) | pest or weed control at 100 ppm (Blattella germanica)

N#Cc1ccc(C(=O)Nc2cccc(C(=O)Nc3c(I)cc(C(F)(C(F)(F)F)C(F)(F)C(F)(F)F)cc3I)c2F)cc1 (stereo not drawn) [6-1359]
≥ 70%: pest or weed control at 1 ppm (Spodoptera litura) | pest or weed control at 1 ppm (Plutella xylostella) | pest or weed control at 1 ppm (Helicoverpa armigera) | pest or weed control at 100 ppm (Laodelphax striatellus) | pest or weed control at 100 ppm (Musca domestica) | pest or weed control at 100 ppm (Blattella germanica)

O=C(Nc1cccc(C(=O)Nc2c(Br)cc(C(F)(C(F)(F)F)C(F)(F)F)cc2C(F)(F)F)c1F)c1ccccc1F [6-1575]
≥ 70%: pest or weed control at 1 ppm (Spodoptera litura) | pest or weed control at 1 ppm (Plutella xylostella) | pest or weed control at 100 ppm (Laodelphax striatellus) | pest or weed control at 100 ppm (Musca domestica) | pest or weed control at 100 ppm (Blattella germanica)

O=C(Nc1cccc(C(=O)Nc2c(Br)cc(C(F)(C(F)(F)F)C(F)(F)F)cc2C(F)(F)F)c1F)c1ccc(Cl)nc1 [6-1617]
≥ 70%: pest or weed control at 1 ppm (Spodoptera litura) | pest or weed control at 1 ppm (Plutella xylostella) | pest or weed control at 100 ppm (Laodelphax striatellus) | pest or weed control at 100 ppm (Musca domestica) | pest or weed control at 100 ppm (Blattella germanica)

O=C(Nc1cccc(C(=O)Nc2c(I)cc(C(F)(C(F)(F)F)C(F)(F)F)cc2C(F)(F)F)c1F)c1ccccc1F [6-1731]
≥ 70%: pest or weed control at 1 ppm (Spodoptera litura) | pest or weed control at 1 ppm (Plutella xylostella) | pest or weed control at 100 ppm (Laodelphax striatellus) | pest or weed control at 100 ppm (Musca domestica) | pest or weed control at 100 ppm (Blattella germanica)

O=C(Nc1c(I)cc(C(F)(C(F)(F)F)C(F)(F)F)cc1C(F)(F)F)c1cccc(NC(=O)c2c(F)cccc2F)c1F [6-1752]
≥ 70%: pest or weed control at 1 ppm (Spodoptera litura) | pest or weed control at 1 ppm (Plutella xylostella) | pest or weed control at 100 ppm (Laodelphax striatellus) | pest or weed control at 100 ppm (Musca domestica) | pest or weed control at 100 ppm (Blattella germanica)

O=C(Nc1cccc(C(=O)Nc2c(I)cc(C(F)(C(F)(F)F)C(F)(F)F)cc2C(F)(F)F)c1F)c1ccc(Cl)nc1 [6-1773]
≥ 70%: pest or weed control at 1 ppm (Spodoptera litura) | pest or weed control at 1 ppm (Plutella xylostella) | pest or weed control at 100 ppm (Laodelphax striatellus) | pest or weed control at 100 ppm (Musca domestica) | pest or weed control at 100 ppm (Blattella germanica)

O=C(Nc1cccc(C(=O)Nc2c(Br)cc(C(F)(C(F)(F)F)C(F)(F)C(F)(F)F)cc2Br)c1)c1cccc(F)c1 (stereo not drawn) [6-5905]
≥ 70%: pest or weed control at 1 ppm (Spodoptera litura) | pest or weed control at 1 ppm (Plutella xylostella) | pest or weed control at 100 ppm (Laodelphax striatellus) | pest or weed control at 100 ppm (Musca domestica) | pest or weed control at 100 ppm (Blattella germanica)

CN(C(=O)c1cccnc1Cl)c1cccc(C(=O)Nc2c(Br)cc(C(F)(C(F)(F)F)C(F)(F)C(F)(F)F)cc2Br)c1 (stereo not drawn) [7-57]
≥ 70%: pest or weed control at 1 ppm (Spodoptera litura) | pest or weed control at 1 ppm (Plutella xylostella) | pest or weed control at 100 ppm (Laodelphax striatellus) | pest or weed control at 100 ppm (Musca domestica) | pest or weed control at 100 ppm (Blattella germanica)

CN(C(=O)c1c(F)cccc1F)c1cccc(C(=O)Nc2c(I)cc(C(F)(C(F)(F)F)C(F)(F)F)cc2C(F)(F)F)c1 [7-446]
≥ 70%: pest or weed control at 1 ppm (Spodoptera litura) | pest or weed control at 1 ppm (Plutella xylostella) | pest or weed control at 100 ppm (Laodelphax striatellus) | pest or weed control at 100 ppm (Musca domestica) | pest or weed control at 100 ppm (Blattella germanica)

CN(C(=O)c1ccccc1F)c1cccc(C(=O)Nc2c(Br)cc(C(F)(C(F)(F)F)C(F)(F)F)cc2Br)c1F [7-1105]
≥ 70%: pest or weed control at 1 ppm (Spodoptera litura) | pest or weed control at 1 ppm (Plutella xylostella) | pest or weed control at 100 ppm (Laodelphax striatellus) | pest or weed control at 100 ppm (Musca domestica) | pest or weed control at 100 ppm (Blattella germanica)

CN(C(=O)c1c(F)cccc1F)c1cccc(C(=O)Nc2c(Br)cc(C(F)(C(F)(F)F)C(F)(F)F)cc2Br)c1F [7-1126]
≥ 70%: pest or weed control at 1 ppm (Spodoptera litura) | pest or weed control at 1 ppm (Plutella xylostella) | pest or weed control at 100 ppm (Laodelphax striatellus) | pest or weed control at 100 ppm (Musca domestica) | pest or weed control at 100 ppm (Blattella germanica)

CN(C(=O)c1c(F)cccc1F)c1cccc(C(=O)Nc2c(I)cc(C(F)(C(F)(F)F)C(F)(F)F)cc2I)c1F [7-1282]
≥ 70%: pest or weed control at 1 ppm (Spodoptera litura) | pest or weed control at 1 ppm (Plutella xylostella) | pest or weed control at 100 ppm (Laodelphax striatellus) | pest or weed control at 100 ppm (Musca domestica) | pest or weed control at 100 ppm (Blattella germanica)

CN(C(=O)c1cccnc1Cl)c1cccc(C(=O)Nc2c(I)cc(C(F)(C(F)(F)F)C(F)(F)F)cc2I)c1F [7-1296]
≥ 70%: pest or weed control at 1 ppm (Spodoptera litura) | pest or weed control at 1 ppm (Plutella xylostella) | pest or weed control at 100 ppm (Laodelphax striatellus) | pest or weed control at 100 ppm (Musca domestica) | pest or weed control at 100 ppm (Blattella germanica)

CN(C(=O)c1ccc(Cl)nc1)c1cccc(C(=O)Nc2c(I)cc(C(F)(C(F)(F)F)C(F)(F)C(F)(F)F)cc2I)c1F (stereo not drawn) [7-1381]
≥ 70%: pest or weed control at 1 ppm (Spodoptera litura) | pest or weed control at 1 ppm (Plutella xylostella) | pest or weed control at 100 ppm (Laodelphax striatellus) | pest or weed control at 100 ppm (Musca domestica) | pest or weed control at 100 ppm (Blattella germanica)

CN(C(=O)c1ccccc1F)c1cccc(C(=O)Nc2c(Br)cc(C(F)(C(F)(F)F)C(F)(F)F)cc2C(F)(F)F)c1F [7-1575]
≥ 70%: pest or weed control at 1 ppm (Spodoptera litura) | pest or weed control at 1 ppm (Plutella xylostella) | pest or weed control at 100 ppm (Laodelphax striatellus) | pest or weed control at 100 ppm (Musca domestica) | pest or weed control at 100 ppm (Blattella germanica)

CN(C(=O)c1c(F)cccc1F)c1cccc(C(=O)Nc2c(Br)cc(C(F)(C(F)(F)F)C(F)(F)F)cc2C(F)(F)F)c1F [7-1596]
≥ 70%: pest or weed control at 1 ppm (Spodoptera litura) | pest or weed control at 1 ppm (Plutella xylostella) | pest or weed control at 100 ppm (Laodelphax striatellus) | pest or weed control at 100 ppm (Musca domestica) | pest or weed control at 100 ppm (Blattella germanica)

CN(C(=O)c1c(F)cccc1F)c1cccc(C(=O)Nc2c(I)cc(C(F)(C(F)(F)F)C(F)(F)F)cc2C(F)(F)F)c1F [7-1752]
≥ 70%: pest or weed control at 1 ppm (Spodoptera litura) | pest or weed control at 1 ppm (Plutella xylostella) | pest or weed control at 100 ppm (Laodelphax striatellus) | pest or weed control at 100 ppm (Musca domestica) | pest or weed control at 100 ppm (Blattella germanica)

CN(C(=O)c1cccnc1Cl)c1cccc(C(=O)Nc2c(I)cc(C(F)(C(F)(F)F)C(F)(F)F)cc2C(F)(F)F)c1F [7-1766]
≥ 70%: pest or weed control at 1 ppm (Spodoptera litura) | pest or weed control at 1 ppm (Plutella xylostella) | pest or weed control at 100 ppm (Laodelphax striatellus) | pest or weed control at 100 ppm (Musca domestica) | pest or weed control at 100 ppm (Blattella germanica)
